Assay results as given in patent US11254690B2, “PTEFb inhibiting macrocyclic compounds” (BAYER AKTIENGESELLSCHAFT, priority 2017, dated 2022).
pIC50: −log10 of the molar value.

Legend:
CDK2/CycE = molecular target: T1, CDK2/CycE (Homo sapiens, UniProt P24941); assay: CDK2/CycE high ATP kinase assay (TR-FRET, 2 mM ATP); format: biochemical; settings: Method 2b
T1 construct: GST; purchased ProQinase GmbH (Freiburg, Germany); host or cells: insect cells (Sf9)
Experimental: 2b. CDK2/CycE High ATP Kinase Assay
CDK2/CycE-inhibitory activity of compounds of the present invention at 2 mM adenosine-tri-phosphate (ATP) was quantified employing the CDK2/CycE TR-FRET (TR-FRET=Time Resolved Fluorescence Energy Transfer) assay as described in the following paragraphs.
Recombinant fusion proteins of GST and human CDK2 and of GST and human CycE, expressed in insect cells (Sf9) and purified by Glutathion-Sepharose affinity chromatography, were purchase from ProQinase GmbH (Freiburg, Germany). As substrate for the kinase reaction biotinylated peptide biotin-Ttds-YISPLKSPYKISEG (C-terminus in amid form) was used which can be purchased e.g. form the company JERINI peptide technologies (Berlin, Germany).
(§1) For the assay 50 nl of a 100 fold concentrated solution of the test compound in DMSO was pipetted into either a black low volume 384 well microtiter plate or a black 1536 well microtiter plate (both Greiner Bio-One, Frickenhausen, Germany), 2 μl of a solution of CDK2/CycE in aqueous assay buffer [50 mM Tris/HCl pH 8.0, 10 mM MgCl2, 1.0 mM dithiothreitol, 0.1 mM sodium ortho-vanadate, 0.01% (v/v) Nonidet-P40 (Sigma)] were added and the mixture was incubated for 15 min at 22° C. to allow pre-binding of the test compounds to the enzyme before the start of the kinase reaction. […] The concentration of CDK2/CycE was adjusted depending of the activity of the enzyme lot and was chosen appropriate to have the assay in the linear range, typical concentrations were about 10 ng/ml. The reaction was stopped by the addition of 3 μl of a solution of TR-FRET detection reagents (0.333 μM streptavidine-XL665 [Cisbio Bioassays, Codolet, France] and 1.67 nM anti-RB(pSer807/pSer811)-antibody from BD Pharmingen [#558389] and 2 nM LANCE EU-W1024 labeled anti-mouse IgG antibody [Perkin-Elmer, product no. AD0077, as an alternative a Terbium-cryptate-labeled anti-mouse IgG antibody from Cisbio Bioassays can be used]) in an aqueous EDTA-solution (167 mM EDTA, 0.2% (w/v) bovine serum albumin in 100 mM HEPES pH 7.5).
(§2) The resulting mixture was incubated 1 h at 22° C. to allow the formation of complex between the phosphorylated biotinylated peptide and the detection reagents. Subsequently the amount of phosphorylated substrate was evaluated by measurement of the resonance energy transfer from the Eu-chelate to the streptavidine-XL. Therefore, the fluorescence emissions at 620 nm and 665 nm after excitation at 350 nm was measured in a TR-FRET reader, e.g. a Pherastar (BMG Labtechnologies, Offenburg, Germany) or a Viewlux (Perkin-Elmer). The ratio of the emissions at 665 nm and at […] was taken as the measure for the amount of phosphorylated substrate. The data were normalised (enzyme reaction without inhibitor=0% inhibition, all other assay components but no enzyme=100% inhibition).

CDK9/CycT1 = molecular target: T2, CDK9/CycT1 (Homo sapiens, UniProt P50750); assay: CDK9/CycT1 high ATP kinase assay (TR-FRET, 2 mM ATP); format: biochemical; settings: for pIC50: 2 mM ATP, Method 1b, lower limit for IC50s about 1-2 nM; for Selectivity high ATP CDK9 over high ATP CDK2: IC50 (high ATP CDK2)/IC50 (high ATP CDK9): ratio from Methods 1b and 2b, minimal values for IC50s near the assay limit
T2 construct: Recombinant full-length His-tagged human CDK9 and CycT1; His; purchased Life Technologies PV4131; host or cells: insect cells
Experimental: 1b. CDK9/CycT1 High ATP Kinase Assay
CDK9/CycT1-inhibitory activity of compounds of the present invention at a high ATP concentration after preincubation of enzyme and test compounds was quantified employing the CDK9/CycT1 TR-FRET assay as described in the following paragraphs.
Recombinant full-length His-tagged human CDK9 and CycT1, expressed in insect cells and purified by Ni-NTA affinity chromatography, were purchased from Life Technologies (Cat. No PV4131). As substrate for the kinase reaction biotinylated peptide biotin-Ttds-YISPLKSPYKISEG (C-terminus in amide form) was used which can be purchased e.g. form the company JERINI peptide technologies (Berlin, Germany).
as §1, with “CDK9/CycT1” for “CDK2/CycE”, “in the range of 0.5 μg/ml.” for “about 10 ng/ml.”, “(0.33” for “(0.333”, “AD0077])” for “AD0077, as an alternative a Terbium-cryptate-labeled anti-mouse IgG antibody from Cisbio Bioassays can be used])”
as §2

T2 sequence (P50750 whole entry): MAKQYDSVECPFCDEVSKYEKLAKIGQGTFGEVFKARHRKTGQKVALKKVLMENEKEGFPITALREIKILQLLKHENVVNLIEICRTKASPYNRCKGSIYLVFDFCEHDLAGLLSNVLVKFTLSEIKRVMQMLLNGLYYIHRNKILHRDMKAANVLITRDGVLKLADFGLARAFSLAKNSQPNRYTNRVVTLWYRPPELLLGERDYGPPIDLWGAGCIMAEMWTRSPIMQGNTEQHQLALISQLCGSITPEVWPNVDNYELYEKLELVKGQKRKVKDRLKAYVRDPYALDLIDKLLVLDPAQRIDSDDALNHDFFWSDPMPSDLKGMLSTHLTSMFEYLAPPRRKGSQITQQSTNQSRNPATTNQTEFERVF
T2 sequence (O60563 whole entry partner): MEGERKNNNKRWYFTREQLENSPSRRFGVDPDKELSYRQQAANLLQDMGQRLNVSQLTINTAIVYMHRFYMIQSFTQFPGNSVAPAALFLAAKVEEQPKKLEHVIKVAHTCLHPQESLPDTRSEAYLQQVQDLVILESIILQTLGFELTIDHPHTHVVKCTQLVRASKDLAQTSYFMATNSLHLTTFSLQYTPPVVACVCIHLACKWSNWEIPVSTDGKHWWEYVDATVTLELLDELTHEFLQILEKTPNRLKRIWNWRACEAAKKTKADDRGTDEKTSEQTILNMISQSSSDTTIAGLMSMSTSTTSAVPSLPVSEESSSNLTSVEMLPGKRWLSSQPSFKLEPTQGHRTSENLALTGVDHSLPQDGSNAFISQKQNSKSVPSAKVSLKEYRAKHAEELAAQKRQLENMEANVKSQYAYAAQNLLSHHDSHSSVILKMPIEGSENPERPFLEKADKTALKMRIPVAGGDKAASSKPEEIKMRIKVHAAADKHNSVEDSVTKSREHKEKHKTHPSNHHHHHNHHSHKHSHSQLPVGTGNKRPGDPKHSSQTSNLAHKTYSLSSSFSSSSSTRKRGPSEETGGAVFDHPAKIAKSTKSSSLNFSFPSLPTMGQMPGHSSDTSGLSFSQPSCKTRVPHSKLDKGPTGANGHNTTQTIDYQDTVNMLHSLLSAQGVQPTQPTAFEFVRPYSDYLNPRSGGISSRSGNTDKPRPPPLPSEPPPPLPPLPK

SMILES	pIC50 (CDK2/CycE)	pIC50 (CDK9/CycT1)	Selectivity high ATP CDK9 over high ATP CDK2: IC50 (high ATP CDK2)/IC50 (high ATP CDK9) (CDK9/CycT1)
CSCc1cc2nc(c1)OC(C)CCCCOc1cc(ccc1F)-c1cc(ncc1F)N2 (racemic) [Example 18, (rac)-3,21-difluoro-14-methyl-10-[(methylsulfanyl)methyl]-13,19-dioxa-5,7,25-triazatetracyclo[18.3.1.1^2,6.1^8,12]hexacosa-1(24),2(26),3,5,8(25),9,11,20,22-nonaene]	< 4.70	7.49	>625
CSCc1cc2nc(c1)OC(C)CCCCCOc1cc(ccc1F)-c1cc(ncc1F)N2 (racemic) [Example 23, (rac)-3,22-difluoro-14-methyl-10-[(methylsulfanyl)methyl]-13,20-dioxa-5,7,26-triazatetracyclo[19.3.1.1^2,6.1^8,12]heptacosa-1(25),2(27),3,5,8(26),9,11,21,23-nonaene]	< 4.70	7.17	>298
CSCc1cc2nc(c1)OC(C)CCCOc1cc(ccc1F)-c1cc(ncc1F)N2 (single isomer, unassigned) [Example 12, 3,20-difluoro-14-methyl-10-[(methylsulfanyl)methyl]-13,18-dioxa-5,7,24-triazatetracyclo[17.3.1.1^2,6.1^8,12]pentacosa-1(23),2(25),3,5,8(24),9,11,19,21-nonaene]	5.19	8.40	1613
CSCc1cc2nc(c1)OC(C)CCCOc1cc(ccc1F)-c1cc(ncc1F)N2 (single isomer, unassigned) [Example 13, 3,20-difluoro-14-methyl-10-[(methylsulfanyl)methyl]-13,18-dioxa-5,7,24-triazatetracyclo[17.3.1.1^2,6.1^8,12]pentacosa-1(23),2(25),3,5,8(24),9,11,19,21-nonaene]	6.15	8.40	178
CSCc1cc2nc(c1)OC(C)CCCCOc1cc(ccc1F)-c1cc(ncc1F)N2 (single isomer, unassigned) [Example 19, 3,21-difluoro-14-methyl-10-[(methylsulfanyl)methyl]-13,19-dioxa-5,7,25-triazatetracyclo[18.3.1.1^2,6.1^8,12]hexacosa-1(24),2(26),3,5,8(25),9,11,20,22-nonaene]	< 4.70	6.86	>145
CSCc1cc2nc(c1)OC(C)CCCCOc1cc(ccc1F)-c1cc(ncc1F)N2 (single isomer, unassigned) [Example 20, 3,21-difluoro-14-methyl-10-[(methylsulfanyl)methyl]-13,19-dioxa-5,7,25-triazatetracyclo[18.3.1.1^2,6.1^8,12]hexacosa-1(24),2(26),3,5,8(25),9,11,20,22-nonaene]	4.90	7.64	548
CSCc1cc2nc(c1)OC(C)CCCCCOc1cc(ccc1F)-c1cc(ncc1F)N2 (single isomer, unassigned) [Example 24, 3,22-difluoro-14-methyl-10-[(methylsulfanyl)methyl]-13,20-dioxa-5,7,26-triazatetracyclo[19.3.1.1^2,6.1^8,12]heptacosa-1(25),2(27),3,5,8(26),9,11,21,23-nonaene]	< 4.70	7.17	>294
CSCc1cc2nc(c1)OC(C)CCCCCOc1cc(ccc1F)-c1cc(ncc1F)N2 (single isomer, unassigned) [Example 25, 3,22-difluoro-14-methyl-10-[(methylsulfanyl)methyl]-13,20-dioxa-5,7,26-triazatetracyclo[19.3.1.1^2,6.1^8,12]heptacosa-1(25),2(27),3,5,8(26),9,11,21,23-nonaene]	< 4.70	7.03	>215
